# Laboratory results reported in patent US20180353445A1, “METHODS AND COMPOSITIONS RELATING TO PROTEASOME INHIBITOR RESISTANCE” (Whitehead Institute for Biomedical Research, priority 2017, published 2018).
# What was measured:
# [1] = biological target: β5-subunit of the proteasome (Homo sapiens, UniProt P28074); settings: cited from earlier work
# [2] = system: relapsed multiple myeloma; experiment: Analysis of phase 2/3 bortezomib clinical trials in relapsed multiple myeloma stratified by 19S subunit expression; assay type: in vivo, human
# Description: (All patients were treated with bortezomib.) (FIG. 15B) Reduced expression of 19S subunit expression is correlated with poor tumor suppression response to bortezomib in patients with relapsed myeloma enrolled in phase 2 and phase 3 clinical trials of bortezomib. Plotted is the time to relapse for patients that relapsed that were either treated with bortezomib, stratified by reduced expression of at least one subunit of the 19S proteasome complex or the dexamethasone treated group as a control.
# We analyzed gene expression data from 135 patients with relapsed multiple myeloma who participated in Phase II or III trials of bortezomib (˜2007; Mulligan, G., Mitsiades, et al. (2007) Gene expression profiling and correlation with outcome in clinical trials of the proteasome inhibitor hortezomib. Blood 109, 3177-3188) and determined the sigma score for each cancer. […]
# Methods details: re-treatment gene expression data from relapsed multiple myeloma patients undergoing clinical trials with bortezomib were downloaded from GSE9782 (34). […] Sigma scores were calculated from all probes. […] P-value was calculated using Wilcoxon test.
# T47D cells = experiment: Elesclomol combined with proteasome inhibitors, control and PSMD2 KD (Lo19S) T47D cells, CellTiter-Glo; assay type: cell-based, human
# Description: FIGS. 38A-38D: Elesclomol synergizes with proteasome inhibitors. Validation of drug screen results. Control and PSMD2 knockdown cells were exposed to the indicated concentrations of either ixazomib (FIG. 38A) or elesclomol (FIG. 38B). Control (FIG. 38C) or PSMD2 KD (FIG. 38D) cells were treated with increasing concentrations of ixa.zomib in the presence or absence of the indicated concentrations of elesclomol. Cell viability was examined 72 hours after drug application using CellTiter-Glo.
# (FIG. 39B) Cells with the 19S PSMD2 subunit KD were treated with indicated concentration of ixazomib or with indicated concentrations of ixazomib with 4:1 ratio of ixazomib to elesclomol (i,e, the concentration of elesclomol is 4× smaller than the indicated concentration of ixazomib). (FIG. 39C) The experiment described in (FIGS. 39A-39B).
# FIGS. 50A-50D: Elesclomol targets the Lo19S state to block proteasome inhibitor resistance. […] The relative viability of the Lo19S versus control cells was calculated for replica experiments and the log2 of the ratio is plotted. […] The relative viability of the respiring cells (Hi-OXPHOS) (gal) versus the control cells (glu) was calculated for replica experiments and the log2 of the ratio is plotted. Specific compounds are annotated. […] Plotted are the mean±−SD of at least three replicas and the calculated EC50s. […]
# FDX1 = biological target: T1, FDX1 (Homo sapiens, UniProt P10109); experiment: In vitro Fe-S cluster assembly with reduced FDX1 (absorbance at 456 nm); assay type: biochemical
# T1 construct: made in house
# T1 sequence (P10109 62-184): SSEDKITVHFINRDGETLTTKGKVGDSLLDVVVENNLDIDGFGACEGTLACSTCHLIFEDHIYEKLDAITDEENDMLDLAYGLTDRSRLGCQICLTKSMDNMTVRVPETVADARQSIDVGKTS
# Text: FIGS. 47A-47C: Inhibition of Fe—S formation by elesclomol and variants (in-vitro). […] Note: “x(number) concentration” means that the indicated compound was present at 5 times the concentration of the enzyme.
# (FIG. 53A) provides a schematic describing mitochondrial Fe—S cluster biosynthesis. The mitochondrial ISC (iron-sulfur cluster) core complex contains the scaffold protein ISCU and cysteine desulfurase (ACP-ISD11-NFS1)2. The latter catalyzes the conversion of cysteine to alanine and generates S° for iron sulfur cluster assembly. S° is reduced by FDX1. A [2Fe-2S] cluster is subsequently formed on ISCU. […] In vitro Fe—S cluster assembly was carried out with reduced. FDX1 as the reducing agent in the presence or absence of either 5× (green) or 10× (yellow) elesclomol (both relative to FDX1). Fe—S cluster formation was monitored by following the increase of absorbance at 456 nm. […] The red triangle denotes an NMR peak that became severely broadened. […] The [2Fe-2S] cluster in FDX1 is indicated by spheres.
# The in vitro Fe—S cluster assembly was carried out with reduced FDX1 as the reducing agent and detected by following the increase of absorbance at 456 tun following the addition of either of 5× (green) or 10× (yellow, both relative to FDX1) compound-1. […] Fe—S formation was monitored by following the increase of absorbance at 456 nm. […] Cysteine desulfurase activity assay carried out with the indicated concentrations of elesclomol.
# MM.1S tumors = experiment: MM.1S luciferase multiple myeloma model in SCID mice; assay type: in vivo, mouse; settings: elesclomol 28mg/kg with bortezomib 0.25mg/kg
# Description: FIGS. 54A-54D: Inhibiting the glycolysis-OXPHOS shift with elesclomol is beneficial to proteasome inhibitor treatment in a mouse model of multiple myeloma. (FIG. 54A) provides a schematic of the experimental outline. Mice were injected with MM .'S luciferase expressing cells. Upon tumor formation as judged by BLI signal intensity, treatment with elesclomol (28mg/kg), bortezomib (0.25mg/kg) or the combination (Combo) was initiated (day 0). At day 15, elesclomol was added to the treatment of one of the aroups that had received only bortezomib from day 0 to day 15 (combo-delayed group). […] N=5 per aroup. *** p<0.001.
# FIGS. 60A-60B: Inhibiting the glycolysis-OXPHOS shift, with elesclomol is beneficial to proteasome inhibitor treatment in a mouse model of multiple myeloma.
SMILES,potency of inhibition of the β5-subunit [1],"time to progression of patients with reduced 19S subunit expression vs patients without ([2]; 34 patients, p-value=0.0086)",effectiveness in patients with reduced expression of 19S proteasome subunit(s) ([2]; vs dexamethasone control),combination effect with proteasome inhibitors (T47D cells),in vitro Fe-S cluster assembly with reduced FDX1 (FDX1; 5x or 10x relative to FDX1),in vitro formation of Fe-S clusters mediated by FDX1 (FDX1; x5 concentration relative to enzyme),effect on proteasome inhibitor treatment in a mouse model of multiple myeloma (MM.1S tumors)
CC(C)C[C@H](NC(=O)[C@H](Cc1ccccc1)NC(=O)c1cnccn1)B(O)O [bortezomib],low nanomolar potency,shortened time to progression,no significant effectiveness over the dexamethasone control,,,,
CN(NC(=O)CC(=O)NN(C)C(=S)c1ccccc1)C(=S)c1ccccc1 [elesclomol],,,,synergizes,inhibits in vitro Fe—S cluster assembly,sufficient to induce an inhibitory effect,beneficial
